Data as given in paper PMC10885153, “Membrane Permeability in a Large Macrocyclic Peptide Driven by a Saddle-Shaped Conformation” (Journal of the American Chemical Society, 2024).
Positions of bridges follow the written chain, without caps; N, C: chain ends. Non-standard residues stand in square brackets, D forms with d. Residues, ends and D or L forms follow the SMILES beside them. NMeC = CN[C@@H](CS)C(=O)O; NMeA = CN[C@@H](C)C(=O)O; dAbu = CC[C@@H](N)C(=O)O; dNMeA = CN[C@H](C)C(=O)O; Abu = CC[C@H](N)C(=O)O; Nleu = CC(C)CNCC(=O)O; NEtG = CCNCC(=O)O

experiment: in vitro; conditions: PAMPA, pH 7.4, PAMPA Pe_avg

Papp at 10 µM [×10⁻⁶ cm/s] | Compound
0.16 | CCOC(=O)[C@@H]1CSCC(=O)N[C@H](CC)C(=O)N(C)[C@@H](C)C(=O)N[C@H](CC(C)C)C(=O)N2CCC[C@@H]2C(=O)N(CC)CC(=O)N[C@H](CC(C)C)C(=O)N(C)[C@H](C)C(=O)N[C@@H](CC(C)C)C(=O)N1C [JF206_ADD_DDDD_Ethyl] ({CH2CO}-[dAbu][NMeA][dL][dP][NEtG][dL][dNMeA]L[NMeC]-OEt; thioether N-9)
0.162 | CCOC(=O)[C@@H]1CSCC(=O)N[C@H](CC)C(=O)N(C)[C@@H](C)C(=O)N[C@H](CC(C)C)C(=O)N2CCC[C@@H]2C(=O)N(CC)CC(=O)N[C@H](CC(C)C)C(=O)N(C)[C@@H](C)C(=O)N[C@@H](CC(C)C)C(=O)N1C [JF206_ADD_DDDL_Ethyl] ({CH2CO}-[dAbu][NMeA][dL][dP][NEtG][dL][NMeA]L[NMeC]-OEt; thioether N-9)
0.005 | CCOC(=O)[C@@H]1CSCC(=O)N[C@H](CC)C(=O)N(C)[C@@H](C)C(=O)N[C@H](CC(C)C)C(=O)N2CCC[C@@H]2C(=O)N(CC)CC(=O)N[C@@H](CC(C)C)C(=O)N(C)[C@H](C)C(=O)N[C@@H](CC(C)C)C(=O)N1C [JF206_ADD_DDLD_Ethyl] ({CH2CO}-[dAbu][NMeA][dL][dP][NEtG]L[dNMeA]L[NMeC]-OEt; thioether N-9)
0.125 | CCOC(=O)[C@@H]1CSCC(=O)N[C@H](CC)C(=O)N(C)[C@@H](C)C(=O)N[C@H](CC(C)C)C(=O)N2CCC[C@@H]2C(=O)N(CC(C)C)CC(=O)N[C@@H](CC(C)C)C(=O)N(C)[C@H](C)C(=O)N[C@@H](CC(C)C)C(=O)N1C [JF206_ADD_DDLD_Isobutyl] ({CH2CO}-[dAbu][NMeA][dL][dP][Nleu]L[dNMeA]L[NMeC]-OEt; thioether N-9)
0.118 | CCOC(=O)[C@@H]1CSCC(=O)N[C@H](CC)C(=O)N(C)[C@@H](C)C(=O)N[C@@H](CC(C)C)C(=O)N2CCC[C@@H]2C(=O)N(CC(C)C)CC(=O)N[C@H](CC(C)C)C(=O)N(C)[C@H](C)C(=O)N[C@@H](CC(C)C)C(=O)N1C [JF206_ADD_DLDD_Isobutyl] ({CH2CO}-[dAbu][NMeA]L[dP][Nleu][dL][dNMeA]L[NMeC]-OEt; thioether N-9)
0.003 | CCOC(=O)[C@@H]1CSCC(=O)N[C@H](CC)C(=O)N(C)[C@@H](C)C(=O)N[C@@H](CC(C)C)C(=O)N2CCC[C@@H]2C(=O)N(CC)CC(=O)N[C@H](CC(C)C)C(=O)N(C)[C@@H](C)C(=O)N[C@@H](CC(C)C)C(=O)N1C [JF206_ADD_DLDL_Ethyl] ({CH2CO}-[dAbu][NMeA]L[dP][NEtG][dL][NMeA]L[NMeC]-OEt; thioether N-9)
0.173 | CCOC(=O)[C@@H]1CSCC(=O)N[C@H](CC)C(=O)N(C)[C@@H](C)C(=O)N[C@@H](CC(C)C)C(=O)N2CCC[C@@H]2C(=O)N(CC(C)C)CC(=O)N[C@H](CC(C)C)C(=O)N(C)[C@@H](C)C(=O)N[C@@H](CC(C)C)C(=O)N1C [JF206_ADD_DLDL_Isobutyl] ({CH2CO}-[dAbu][NMeA]L[dP][Nleu][dL][NMeA]L[NMeC]-OEt; thioether N-9)
0.174 | CCOC(=O)[C@@H]1CSCC(=O)N[C@H](CC)C(=O)N(C)[C@@H](C)C(=O)N[C@@H](CC(C)C)C(=O)N2CCC[C@@H]2C(=O)N(CC)CC(=O)N[C@@H](CC(C)C)C(=O)N(C)[C@H](C)C(=O)N[C@@H](CC(C)C)C(=O)N1C [JF206_ADD_DLLD_Ethyl] ({CH2CO}-[dAbu][NMeA]L[dP][NEtG]L[dNMeA]L[NMeC]-OEt; thioether N-9)
0.561 | CCOC(=O)[C@@H]1CSCC(=O)N[C@H](CC)C(=O)N(C)[C@@H](C)C(=O)N[C@@H](CC(C)C)C(=O)N2CCC[C@@H]2C(=O)N(CC)CC(=O)N[C@@H](CC(C)C)C(=O)N(C)[C@@H](C)C(=O)N[C@@H](CC(C)C)C(=O)N1C [JF206_ADD_DLLL_Ethyl] ({CH2CO}-[dAbu][NMeA]L[dP][NEtG]L[NMeA]L[NMeC]-OEt; thioether N-9)
0.688 | CCOC(=O)[C@@H]1CSCC(=O)N[C@H](CC)C(=O)N(C)[C@@H](C)C(=O)N[C@@H](CC(C)C)C(=O)N2CCC[C@@H]2C(=O)N(CC(C)C)CC(=O)N[C@@H](CC(C)C)C(=O)N(C)[C@@H](C)C(=O)N[C@@H](CC(C)C)C(=O)N1C [JF206_ADD_DLLL_Isobutyl] ({CH2CO}-[dAbu][NMeA]L[dP][Nleu]L[NMeA]L[NMeC]-OEt; thioether N-9)
0.177 | CCOC(=O)[C@@H]1CSCC(=O)N[C@@H](CC)C(=O)N(C)[C@@H](C)C(=O)N[C@H](CC(C)C)C(=O)N2CCC[C@@H]2C(=O)N(CC)CC(=O)N[C@H](CC(C)C)C(=O)N(C)[C@H](C)C(=O)N[C@@H](CC(C)C)C(=O)N1C [JF206_ADL_LDDD_Ethyl] ({CH2CO}-[Abu][NMeA][dL][dP][NEtG][dL][dNMeA]L[NMeC]-OEt; thioether N-9)
0.315 | CCOC(=O)[C@@H]1CSCC(=O)N[C@@H](CC)C(=O)N(C)[C@@H](C)C(=O)N[C@H](CC(C)C)C(=O)N2CCC[C@@H]2C(=O)N(CC)CC(=O)N[C@H](CC(C)C)C(=O)N(C)[C@@H](C)C(=O)N[C@@H](CC(C)C)C(=O)N1C [JF206_ADL_LDDL_Ethyl] ({CH2CO}-[Abu][NMeA][dL][dP][NEtG][dL][NMeA]L[NMeC]-OEt; thioether N-9)
0.013 | CCOC(=O)[C@@H]1CSCC(=O)N[C@@H](CC)C(=O)N(C)[C@@H](C)C(=O)N[C@H](CC(C)C)C(=O)N2CCC[C@@H]2C(=O)N(CC)CC(=O)N[C@@H](CC(C)C)C(=O)N(C)[C@@H](C)C(=O)N[C@@H](CC(C)C)C(=O)N1C [JF206_ADL_LDLL_Ethyl] ({CH2CO}-[Abu][NMeA][dL][dP][NEtG]L[NMeA]L[NMeC]-OEt; thioether N-9)
0.018 | CCOC(=O)[C@@H]1CSCC(=O)N[C@@H](CC)C(=O)N(C)[C@@H](C)C(=O)N[C@@H](CC(C)C)C(=O)N2CCC[C@@H]2C(=O)N(CC)CC(=O)N[C@H](CC(C)C)C(=O)N(C)[C@H](C)C(=O)N[C@@H](CC(C)C)C(=O)N1C [JF206_ADL_LLDD_Ethyl] ({CH2CO}-[Abu][NMeA]L[dP][NEtG][dL][dNMeA]L[NMeC]-OEt; thioether N-9)
0.286 | CCOC(=O)[C@@H]1CSCC(=O)N[C@@H](CC)C(=O)N(C)[C@@H](C)C(=O)N[C@@H](CC(C)C)C(=O)N2CCC[C@@H]2C(=O)N(CC(C)C)CC(=O)N[C@H](CC(C)C)C(=O)N(C)[C@H](C)C(=O)N[C@@H](CC(C)C)C(=O)N1C [JF206_ADL_LLDD_Isobutyl] ({CH2CO}-[Abu][NMeA]L[dP][Nleu][dL][dNMeA]L[NMeC]-OEt; thioether N-9)
0.011 | CCOC(=O)[C@@H]1CSCC(=O)N[C@@H](CC)C(=O)N(C)[C@@H](C)C(=O)N[C@@H](CC(C)C)C(=O)N2CCC[C@@H]2C(=O)N(CC)CC(=O)N[C@H](CC(C)C)C(=O)N(C)[C@@H](C)C(=O)N[C@@H](CC(C)C)C(=O)N1C [JF206_ADL_LLDL_Ethyl] ({CH2CO}-[Abu][NMeA]L[dP][NEtG][dL][NMeA]L[NMeC]-OEt; thioether N-9)
0.229 | CCOC(=O)[C@@H]1CSCC(=O)N[C@@H](CC)C(=O)N(C)[C@@H](C)C(=O)N[C@@H](CC(C)C)C(=O)N2CCC[C@@H]2C(=O)N(CC(C)C)CC(=O)N[C@H](CC(C)C)C(=O)N(C)[C@@H](C)C(=O)N[C@@H](CC(C)C)C(=O)N1C [JF206_ADL_LLDL_Isobutyl] ({CH2CO}-[Abu][NMeA]L[dP][Nleu][dL][NMeA]L[NMeC]-OEt; thioether N-9)
0.326 | CCOC(=O)[C@@H]1CSCC(=O)N[C@@H](CC)C(=O)N(C)[C@@H](C)C(=O)N[C@@H](CC(C)C)C(=O)N2CCC[C@@H]2C(=O)N(CC)CC(=O)N[C@@H](CC(C)C)C(=O)N(C)[C@H](C)C(=O)N[C@@H](CC(C)C)C(=O)N1C [JF206_ADL_LLLD_Ethyl] ({CH2CO}-[Abu][NMeA]L[dP][NEtG]L[dNMeA]L[NMeC]-OEt; thioether N-9)
0.194 | CCOC(=O)[C@@H]1CSCC(=O)N[C@H](CC)C(=O)N(C)[C@@H](C)C(=O)N[C@H](CC(C)C)C(=O)N2CCC[C@H]2C(=O)N(CC)CC(=O)N[C@H](CC(C)C)C(=O)N(C)[C@H](C)C(=O)N[C@@H](CC(C)C)C(=O)N1C [JF206_ALD_DDDD_Ethyl] ({CH2CO}-[dAbu][NMeA][dL]P[NEtG][dL][dNMeA]L[NMeC]-OEt; thioether N-9)
0.18 | CCOC(=O)[C@@H]1CSCC(=O)N[C@H](CC)C(=O)N(C)[C@@H](C)C(=O)N[C@H](CC(C)C)C(=O)N2CCC[C@H]2C(=O)N(CC)CC(=O)N[C@H](CC(C)C)C(=O)N(C)[C@@H](C)C(=O)N[C@@H](CC(C)C)C(=O)N1C [JF206_ALD_DDDL_Ethyl] ({CH2CO}-[dAbu][NMeA][dL]P[NEtG][dL][NMeA]L[NMeC]-OEt; thioether N-9)
0.556 | CCOC(=O)[C@@H]1CSCC(=O)N[C@H](CC)C(=O)N(C)[C@@H](C)C(=O)N[C@H](CC(C)C)C(=O)N2CCC[C@H]2C(=O)N(CC(C)C)CC(=O)N[C@H](CC(C)C)C(=O)N(C)[C@@H](C)C(=O)N[C@@H](CC(C)C)C(=O)N1C [JF206_ALD_DDDL_Isobutyl] ({CH2CO}-[dAbu][NMeA][dL]P[Nleu][dL][NMeA]L[NMeC]-OEt; thioether N-9)
0.007 | CCOC(=O)[C@@H]1CSCC(=O)N[C@H](CC)C(=O)N(C)[C@@H](C)C(=O)N[C@H](CC(C)C)C(=O)N2CCC[C@H]2C(=O)N(CC)CC(=O)N[C@@H](CC(C)C)C(=O)N(C)[C@H](C)C(=O)N[C@@H](CC(C)C)C(=O)N1C [JF206_ALD_DDLD_Ethyl] ({CH2CO}-[dAbu][NMeA][dL]P[NEtG]L[dNMeA]L[NMeC]-OEt; thioether N-9)
0.063 | CCOC(=O)[C@@H]1CSCC(=O)N[C@H](CC)C(=O)N(C)[C@@H](C)C(=O)N[C@H](CC(C)C)C(=O)N2CCC[C@H]2C(=O)N(CC(C)C)CC(=O)N[C@@H](CC(C)C)C(=O)N(C)[C@H](C)C(=O)N[C@@H](CC(C)C)C(=O)N1C [JF206_ALD_DDLD_Isobutyl] ({CH2CO}-[dAbu][NMeA][dL]P[Nleu]L[dNMeA]L[NMeC]-OEt; thioether N-9)
0.00548 | CCOC(=O)[C@@H]1CSCC(=O)N[C@H](CC)C(=O)N(C)[C@@H](C)C(=O)N[C@H](CC(C)C)C(=O)N2CCC[C@H]2C(=O)N(CC)CC(=O)N[C@@H](CC(C)C)C(=O)N(C)[C@@H](C)C(=O)N[C@@H](CC(C)C)C(=O)N1C [JF206_ALD_DDLL_Ethyl] ({CH2CO}-[dAbu][NMeA][dL]P[NEtG]L[NMeA]L[NMeC]-OEt; thioether N-9)
